Experimental data taken from patent publication US20240423995A1, “C-KIT INHIBITORS AND USES FOR TREATING AND PREVENTING INFLAMMATORY CONDITIONS” (GEORGETOWN UNIVERSITY, priority 2023, published 2024).

Tests used:
[1] = test system: mast cells (spleen); experiment: MC maturation in the spleen of transgenic APP mice by flow cytometry; type: in vivo; conditions: 20 and 40 mg/kg intraperitoneal, six weeks, vs DMSO
Protocol: The studies in this example compared the number of immature MCs to the number of mature MCs in the spleen.
12-month-old transgenic APP mice were injected intraperitoneally with 20 mg/kg BK40196, 40 mg/kg BK40196, or DMSO for six weeks before having spleens collected for analysis. Spleen samples were then treated with the three flow-conjugated antibodies and analyzed for maturation of mast cell progenitors to mature mast cells, as described in Example 5. Differences were compared using an unpaired Student's t-test.

[2] = test system: peripheral mast cells; experiment: Mature peripheral mast cells in blood of wild-type C57BL/6 mice by flow cytometry; type: in vivo; conditions: 50 mg/kg per day intraperitoneal for five days, p=0.06
Protocol: (§1) Wild-type C57BL/6 mice were dosed with BK40197 via intraperitoneal injection at 50 mg/kg (maximum tolerated dose) per day for five days before blood samples were taken and peripheral mast cells were isolated via flow cytometry. Cell gating was performed using antibodies against specific epitopes for cells: CD45 antibody for leukocytes, FceR1 antibody for mature mast cells, and CD117 antibody for immature and mature mast cells.

[3] = Maximum tolerated dose in wild-type C57BL/6 mice; conditions: mouse, in vivo, ip, intraperitoneal injection, per day
Protocol: as §1

| Structure (SMILES) | total number of mature MCs (CD117+/FceR1+) in the spleen ([1]; dose-dependent) | total number of mature MCs (FceR1+) in the spleen ([1]; dose-dependent) | ratio of immature MCs (CD117 only) to mature MCs (CD117 and FceR1) in the spleen [1] | reduction of gating for mature MCs (CD117+/FceR1+) compared to DMSO [2] | MTD at 5 days [3] |
| --- | --- | --- | --- | --- | --- |
| Cc1cccc(-c2cc3nccc(Nc4cccc(O)c4)c3s2)c1 [BK40196] | significantly reduced | significantly reduced | increased |  |  |
| Cc1cccc(-c2cc3nccc(N4CCOCC4)c3s2)c1 [BK40197] |  |  |  | 48% | 50 mg/kg |
